The text below walks through data of patent US6423823B1, “Organic chemical compounds and method for producing the same” (Bayer Aktiengesellschaft, priority 1997, dated 2002).

One assay concerns Spodoptera frugiperda. The assay can be described thus: Insecticidal maize leaf test. The conditions noted are these: lethal dose for 50% of larvae, third larval stage, after 72 hours. It counts as in vivo. The method, then: Test Insect: Spodoptera frugiperda
Test method: A rectangle (1.5×2 cm) cut from maize leaves (8-10 day-old plant, variety Golda) is placed in a Petri dish (diameter 5.5 cm, Greiner). The test substance, as a methanolic solution, is applied to the maize leaf and, after the solvent has evaporated, a filter disc (diameter 13 mm, Schleicher und Schüll) saturated with water and a larva of the third larval stage are added. The larva is placed next to the piece of leaf. The experiment is incubated at 24° C. After 48 hours, untreated maize (1.5×2 cm) is added. The feed behaviour and the state of the larvae are evaluated after 24, 48 and 72 hours. Per test concentration, 4 experiments and 3 repetitions are carried out. The insecticidal effect is stated as LD50 (lethal dose for 50% of larvae) after 72 hours.

Assay [1] relates to Meloidogyne incognita. Kind of assay: Nematicidal activity on phytopathogenic nematodes in 24-well tissue culture plates. The conditions noted are these: lethal dose for 90% of the nematode population, second larval stage, after 16 hours. The procedure: (§1) Test nematode: Meloidogyne incognita
Test method: The test substances are dissolved in methanol and pipetted into the wells of tissue culture plates (24-well tray). The solvent is evaporated, and 400 μl of nematode suspension are then added to each well of the tissue culture plate. The number of nematodes is 100 larvae of the second larval stage/400 μl . To promote the solubility of the samples in aqueous medium, the plate is shaken at 100 rpm for 15 minutes, and a first microscopic control is then carried out. After 16 hours, the percentage of dead larvae is determined and stated as LD90 (lethal dose for 90% of the nematode population).

Assay [2] deals with Meloidogyne incognita. Kind of assay: Effect on nematodes in the greenhouse (test crop: cucumbers). The assay is classed as in vivo. The conditions noted are these: for Efficacy in %: cucumber plants, after 14 days, 100% = no galls formed; for Number of galls/plant: poured onto cucumber plants, evaluation after 14 days. The procedure:
as §1
Test method: In each case two cucumber plants (variety Bella F1) are grown in a soil-leaf mixture in pots of the dimensions 7×7×6 cm. The test substances are, in the appropriate concentrations, dissolved in methanol and then diluted in water and then poured onto the cucumber plants, which are about 14 days old. Per drip, 10 ml of solution are poured on. 3 hours after the treatment, about 500 nematodes are pipetted as a suspension onto each pot. The pots are incubated in a greenhouse at a day temperature of about 26° C. and a night temperature of 20° C. After 14 days, evaluation is carried out by washing out the roots and determining the galls formed per plant.
The efficacy of the test substance is 100% if no galls have been formed, and it is 0% if the same number of galls have been formed as in the control.

The subject of a further assay is Plutella xylostella. Kind of assay: Insecticidal leaf disc test (savoy cabbage). The conditions noted are these: lethal dose for 100% of the larvae tested, third larval stage, after 72 hours. The assay is classed as in vivo. The method, then: Test insect: Plutella xylostella
(§2) Test method: Using a cork borer, 2 discs having a diameter of 10 mm are punched out of savoy cabbage leaves and placed in a Petri dish (diameter 5.5 cm, Greiner). The test substance is pipetted onto the leaf discs and, after the solvent has evaporated, a filter disc (diameter 13 mm, Schleicher und Schüll) saturated in water and 2 freshly hatched larvae of the third larval stage are added. The larvae are placed next to the leaf discs. The experiment is incubated at 24° C. After 48 hours, an untreated savoy cabbage disc (10 mm Ø) is added. The feed behaviour and the state of the larvae are evaluated after 24, 48 and 72 hours. Per test concentration, 2 experiments and 3 repetitions are carried out. The insecticidal effect is stated as LD100 (lethal dose for 100% of the larvae tested) after 72 hours.

Another assay deals with Phaedon cochleariae. The assay can be described thus: Insecticidal leaf disc test (savoy cabbage). The assay is classed as in vivo. The conditions noted are these: lethal dose for 100% of the larvae tested, third larval stage, after 96 hours. The method, then: Test insect: Phaedon cochleariae
as §2, with “und Schull)” for “und Schüll)”, “24, 48, 72” for “24, 48”, “and 96” for “and 72”, “after 96” for “after 72”

A further assay deals with Trichinella spiralis. The assay can be described thus: In vitro test against Trichinella spiralis. The conditions noted are these: concentration of 1 μg/ml. The procedure:
The test was carried out according to the test description in the publication Plant et al. (1996) Pesticide Science 48: 351-358.

The subject of a further assay is Heterakis spumosa. The assay can be described thus: In vivo mouse model, intestinal nematode. The conditions noted are these: dosage of 50 mg/kg. The method, then: In the in vivo mouse model, omphalotin B has full activity against the intestinal nematode Heterakis spumosa at a dosage of 50 mg/kg. The test is described in the above publication.

Each structure is given as a SMILES string. Numbered stars: 1 amine (or outer) side, 2 acyl side, 3 side chain; on linkers, the order of the positions; unused ones are H or OH. Square brackets hold non-standard residues; d marks the D form. Peptide text beside a SMILES is read from it. ξ: configuration not given here. X1 = CC(OC(=O)CC(C)(C)O)C(C)C(C(=O)[*:2])N(C)[*:1]; X4 = CC(=O)OC(C)C(C)C(C(=O)[*:2])N(C)[*:1]; X3 = O=C(C1CC2(O)c3ccccc3NC2N1[*:1])[*:2]; ξNMeVal(3-OH) = CNC(C(=O)O)C(C)(C)O; NMeξGly(OAc) = CNC(OC(C)=O)C(=O)O; NMeI = CC[CH](C)[CH](NC)C(=O)O; X2 = CN(C(O)C(=O)[*:2])[*:1]; NMeV = CN[CH](C(=O)O)C(C)C; Sar = CNCC(=O)O

As for `CCC(C)C1NC(=O)C(C(C)C)N(C)C(=O)C2CC3(O)c4ccccc4NC3N2C(=O)CN(C)C(=O)C(C(C)CC)N(C)C(=O)C(C(C)C)NC(=O)C(OC(C)=O)N(C)C(=O)C(C(C)C(C)OC(=O)CC(C)(C)O)N(C)C(=O)C(C(C)(C)O)N(C)C(=O)CN(C)C(=O)C(C(C)C)N(C)C(=O)C(C(C)C)N(C)C1=O` (centres unmarked) [Omphalotin C] (cyclo([Sar][ξNMeVal(3-OH)][X1][NMeξGly(OAc)]V[NMeI][Sar][X3][NMeV]I[NMeV][NMeV]); configuration not given here), in the assay on Spodoptera frugiperda, the “Insecticidal activity against Spodoptera frugiperda LD50” value turned out to be 100 μg/maize leaf. For the same molecule, in the assay on Meloidogyne incognita [1], the “Nematicidal activity against Meloidogyne incognita LD90” value (shortened to “Nematicidal activity”) stood at 1 µg/mL. Besides, the Efficacy in % in the assay with Meloidogyne incognita [2] (2 ppm) is given as 99%; in the assay on Meloidogyne incognita [2] (5 ppm), 100%. In addition, the Number of galls/plant in the assay on Meloidogyne incognita [2] (2 ppm) is reported as 1; in the assay with Meloidogyne incognita [2] (5 ppm), 0.
`CCC(C)C1NC(=O)C(C(C)C)N(C)C(=O)C2CC3(O)c4ccccc4NC3N2C(=O)CN(C)C(=O)C(C(C)CC)N(C)C(=O)C(C(C)C)NC(=O)C(OC(C)=O)N(C)C(=O)C(C(C)C(C)OC(C)=O)N(C)C(=O)C(C(C)(C)O)N(C)C(=O)CN(C)C(=O)C(C(C)C)N(C)C(=O)C(C(C)C)N(C)C1=O` (centres unmarked) [Omphalotin D] (cyclo([Sar][ξNMeVal(3-OH)][X4][NMeξGly(OAc)]V[NMeI][Sar][X3][NMeV]I[NMeV][NMeV]); configuration not given here): the “Insecticidal activity against Plutella xylostella LD100” value in the assay with Plutella xylostella amounted to 100 μg/leaf disc. Also, the “Insecticidal activity against Spodoptera frugiperda LD50” value in the assay with Spodoptera frugiperda was 80 μg/maize leaf. In the assay on Meloidogyne incognita [1], the “Nematicidal activity” value was 4 µg/mL. In addition, the “Insecticidal activity against Phaedon cochleariae LD100” value in the assay with Phaedon cochleariae came to 100 μg/leaf disc.
In the case of `CCC(C)C1NC(=O)C(C(C)C)N(C)C(=O)C2CC3(O)c4ccccc4NC3N2C(=O)CN(C)C(=O)C(C(C)CC)N(C)C(=O)C(C(C)C)NC(=O)C(O)N(C)C(=O)C(C(C)C(C)OC(=O)CC(C)(C)O)N(C)C(=O)C(C(C)(C)O)N(C)C(=O)CN(C)C(=O)C(C(C)C)N(C)C(=O)C(C(C)C)N(C)C1=O` (centres unmarked) [Omphalotin B] (cyclo([Sar][ξNMeVal(3-OH)][X1][X2]V[NMeI][Sar][X3][NMeV]I[NMeV][NMeV]); configuration not given here), the “Effect against Trichinella spiralis in vitro” value in the assay on Trichinella spiralis was “full effect”. In addition, the “Nematicidal activity” value with Meloidogyne incognita [1] stood at 2.5 µg/mL. Besides, the “Activity against the intestinal nematode Heterakis spumosa” value in the assay on Heterakis spumosa was “full activity”. In the assay on Meloidogyne incognita [2] (2 ppm), this molecule came in with an Efficacy in % of 99% and a Number of galls/plant of 1. Also, in the assay on Meloidogyne incognita [2] (5 ppm), the Efficacy in % is given as 100% and the Number of galls/plant is reported as 0.
